Reference: patent publication US20230331655A1, “HYDROXYN[…] AND METHODS OF USE THEREOF” (UNIVERSITY OF MARYLAND, BALTIMORE, priority 2020, published 2023)
Entries after “also recorded” stand apart in the source; their conditions may differ.

How the values were obtained:
[1] = oral bioavailability in mice; details: mouse, in vivo
mice = assay: antidepressant-relevant behavioral actions after oral administration; assay type: in vivo, mouse
Male C57BL/6J mice [2] = assay: sub-effective dose morphine conditioned-place preference after chronic social defeat stress; assay type: in vivo, mouse; details: single 10 mg/kg i.p. before conditioning, morphine 0.25 mg/kg
Excerpt: (§1) Animals: Male C57BL/6J mice (8 weeks old, Jackson laboratories) were kept in a temperature and humidity-controlled environment and maintained in a 12:12 hr light/dark cycle (lights on at 7:00 AM). Mice were singly-housed for all the studies due to increased aggression following opioid administration and were randomly assigned to treatment groups.
(§2) Drugs: (2R,6R)-HNK hydrochloride was synthesized and characterized. Absolute and relative stereochemistry for (2R,6R)-HNK was confirmed by small molecule x-ray crystallography. For the intraperitoneal injections, drugs were dissolved in 0.9% saline and given in a volume of 5 ml/kg.
Social defeats: Socially defeated mice underwent a 10-day chronic social defeat stress paradigm. […]
Social interaction test: Following the social defeats, on day 11, test mice were screened for susceptibility in a social interaction/avoidance choice test. […] The time spent interacting (nose within close proximity of the cage) with the “stranger” mouse versus the empty cage was analyzed using TopScan video tracking software (CleverSys, Reston, Virginia). […]
Sucrose preference: Following the social interaction test, mice were assessed for sucrose preference in their home cages. […] Sucrose preference was measured (day 12) and were assigned to two groups: resilient (sucrose preference >70%) and susceptible (sucrose preference <55%). […]

Male C57BL/6J mice [3] = assay: high-dose morphine conditioned-place preference in stress-naive mice; assay type: in vivo, mouse; details: single 10 mg/kg i.p., morphine 5 mg/kg
Excerpt: as §1, §2
Morphine conditioned-place preference: The conditioned-place preference (CPP) apparatus consisted of a rectangular three-chambered box (40 cm length×30 cm width×35 cm height; Stoelting Co., Wood Dale, IL, USA) comprised of two equal sized end-chambers (20 cm×18 cm×35 cm) and a central chamber (20 cm×10 cm×35 cm). […] The CPP protocol consisted of a pre-conditioning phase, eight conditioning sessions and a post-conditioning test. […]
Conditioning phase (Days 3-6): During the morning sessions of the conditioning phase, saline was administered and mice were placed in their non-opioid assigned compartment for 40 min. […] Time spent in each compartment was measured during both pre- and post-conditioning sessions using TopScan v2.0 (CleverSys, Inc, VA, USA).

For `N[C@@]1(c2ccccc2Cl)CCC[C@@H](O)C1=O` [(2R,6R)-HNK, (2R,6R)-hydroxynorketamine], the bioavailability [1] was roughly 50%, the “oral doses exerting antidepressant-relevant behavioral actions” value (mice) was 15 to 50 mg/kg and the “morphine-induced place preference (conditioning to sub-effective dose of morphine)” value (Male C57BL/6J mice [2]; stress susceptible mice) was “prevents conditioning; also recorded: prevented morphine-induced place preference”. The “morphine-induced place preference (conditioning to sub-effective dose of morphine)” value (Male C57BL/6J mice [2]; stress-resilient mice) was “no significant effect” and the “development of high-dose morphine CPP” value (Male C57BL/6J mice [3]) was “did not prevent”.
